Results taken from patent US20100317733A1, “USE OF CIS-EPOXYEICOSANTRIENOIC ACIDS AND INHIBITORS OF SOLUBLE EPOXIDE HYDROLASE TO REDUCE PULMONARY INFILTRATION BY NEUTROPHILS” (THE REGENTS OF THE UNIVERSITY OF CALIFORNIA, priority 2004, published 2010).
“Also recorded” adds a separate entry of the source.

How the values were obtained:
[1] = Pharmacokinetics in SH rats following subcutaneous administration; format: in vivo
Method: Equipment. LC-MS-MS analysis was performed using a Micromass Quattro Ultima triple quadrupole tandem mass spectrometer (Micromass, Manchester, UK) equipped with atomospheric pressure ionization source [atomospheric z-spray pressure chemical ionization (APcI) or electrospray ionization (ESI) interface]. The HPLC system consisted of a Waters model 2790 separations module (Waters Corporation, Milford, Mass.) including an autosampler with refrigerated sample compartment and as inline vacuum degasser and Waters model 2487 dual λ absorbance detector (Waters Corporation). An XTerra™MS C18 column (30×2.1 mm I. D., 3.5 μm; Waters Corporation) was used with a flow rate of 0.3 mL/min at ambient temperature. Data were manipulated with MassLynx software (Ver. 4.0).
LC-MS-MS conditions. The ESI mass spectrometer was operated in the positive ion mode with a capillary voltage at 1.0 kV. Cone gas (N2) and desolvation gas (N2) were maintained at flow rates of 130 and 630 L/h, respectively. The source and the desolvation temperature were set at 100° C. and 300° C., respectively. […] Quantitative analysis was performed in the multiple reaction monitoring (MRM) mode with a dwell time of 300 ms. Ultra pure argon (99.9999%) was used as a collision gas at a pressure of 2.5 milli-torr for collision-induced dissociation (CID). […]
Pharmacokinetics analysis. […] AUCt was calculated by the linear/log trapezoidal rule.

[2] = system: cells in BAL from rats exposed to tobacco smoke; experiment: Bronchoalveolar lavage (BAL) cell counts and differentials in rats exposed to tobacco smoke for 3 days; format: in vivo, SH rats; conditions: for % Eosinophils / % Lymphocytes / % Macrophages / % Neutrophils: cell differential in BAL, 3 days, mean ± SE (n = 4)
From the text: Animals. Healthy, 11-week-old male spontaneously hypertensive (“SH”) (SHR/NCrlBR) rats (derived from WKY rats by phenotypic segregation of the hypertensive trait and inbreeding) were purchased from Charles River Laboratories (Portage, Mich.) and quarantined for 1 week prior to exposure to tobacco smoke. Animals were handled in accordance with standards established by the U.S. Animal Welfare Acts set forth in National Institutes of Health guidelines and the University of California, Davis Animal Care and Use Committee. The rats were housed in plastic cages with TEK-Chip pelleted paper bedding (Harlan Teklad, Madison, Wis.) and maintained on a 12 hour light/12 hour dark cycle. All animals had access to water and Laboratory Rodent Diet 5001 purchased from LabDiet (Brentwood, Mo.) ad libitum before, during and after exposures.
Subcutaneous Implantation of EETs for Tobacco Smoke Exposures. Wax formulations containing EETs were implanted subcutaneously 1 day prior to onset of exposure to tobacco smoke. Animals were implanted with the EETs formulation on the day before the first day of exposure. Four animals from the control group and four animals from the tobacco smoke-exposed group were implanted with the EETs formulation. The approach of a single subcutaneous implantation for the 3-day study was selected to minimize stress to animals from anesthesia.
Subcutaneous injection of AUDA-nBE for Tobacco Smoke Exposures. AUDA-nBE (7 mg/1 ml corn oil) was subcutaneously administered in SH rats at a dose of 10 mg/kg bodyweight. The total volume injected was 0.36 to 0.46 ml. Animals were injected with AUDA-nBE each day prior to exposure. Doses of AUDA-nBE used in this study were selected based on results from preliminary pharmacokinetic studies in mice and rats. These doses were selected to provide optimal efficacy and minimal toxicity over a three-day period. Four animals from the control group and four animals from the tobacco smoke-exposed group were injected with AUDA-nBE. Four animals with EETs implants from the control group and four animals with EETs implants from the tobacco smoke-exposed group were injected with AUDA-nBE. In addition, four control animals and four tobacco smoke-exposed animals were injected with corn oil using the same protocol as the AUDA-nBE -injected animals.
Tobacco Smoke Exposure. Rats were exposed to a mixture of sidestream and mainstream cigarette smoke in a smoking apparatus (Teague, S. V. et al., Inhal. Toxicol. 6:79-93 (1994)). The cigarettes were humidified 2R4F research cigarettes (Tobacco Health Research Institute; Lexington, Ky.). An automatic metered puffer was used to smoke the cigarettes under Federal Trade Commission conditions (35 ml puff, 2 sec duration, 1 puff per min). The smoke was collected in a chimney, diluted with filtered air, and delivered to whole-body exposure chambers. The exposures were characterized for three major constituents of cigarette smoke; nicotine, carbon monoxide, and total suspended particulates (TSP). […] Carbon monoxide was measured every 30 minutes, TSP every 2 hours, and nicotine once per day (approximately midway through the exposure period).
Bronchoalveolar Lavage. Established protocols were followed for bronchoalveolar lavage (BAL) of animals (Gossart, S. et al., J. Immunol. 156:1540-1548 (1996)). Eighteen hours after the last exposure to tobacco smoke, animals were anesthetized with an overdose of sodium pentobarbital. The trachea was cannulated and the lung lavaged with one aliquot of Ca^2+/Mg^2+-free phosphate buffered saline (PBS, pH 7.4). The volume of the aliquot was equal to 35 ml/kg body weight (approximately 90% of total lung capacity). The aliquot was instilled into the lungs three times before final collection. The BAL fluid (BALF) was immediately centrifuged at 250×g for 10 min at 4° C. to remove cells. The cell pellet was then resuspended in PBS and the cells counted with a hemocytometer. […]

[3] = Metabolic stability (stated, no method)
sEH = target: T1, sEH (Homo sapiens, UniProt P34913); experiment: Inhibition of soluble epoxide hydrolase (sEH); format: biochemical
T1 sequence (P34913 1-555): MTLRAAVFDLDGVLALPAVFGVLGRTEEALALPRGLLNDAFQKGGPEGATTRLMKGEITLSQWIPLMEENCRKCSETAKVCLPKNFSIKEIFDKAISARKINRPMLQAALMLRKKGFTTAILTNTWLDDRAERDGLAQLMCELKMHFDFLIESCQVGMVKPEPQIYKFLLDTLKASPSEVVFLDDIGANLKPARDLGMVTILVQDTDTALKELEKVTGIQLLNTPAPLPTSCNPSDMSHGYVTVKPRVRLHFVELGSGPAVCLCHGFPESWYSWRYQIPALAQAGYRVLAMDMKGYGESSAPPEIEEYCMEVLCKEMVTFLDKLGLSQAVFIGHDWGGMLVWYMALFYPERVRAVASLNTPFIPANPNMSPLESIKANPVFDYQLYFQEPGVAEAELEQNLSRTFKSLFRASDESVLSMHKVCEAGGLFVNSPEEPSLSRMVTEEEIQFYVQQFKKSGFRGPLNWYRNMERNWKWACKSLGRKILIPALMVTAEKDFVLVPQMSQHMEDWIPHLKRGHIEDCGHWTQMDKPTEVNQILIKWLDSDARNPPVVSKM
From the text: The enzyme also can be detected based on the binding of specific ligands to the catalytic site which either immobilize the enzyme or label it with a probe such as dansyl, fluoracein, luciferase, green fluorescent protein or other reagent.
The assays are normally carried out with a recombinant enzyme following affinity purification.

[4] = system: tobacco smoke-induced inflammation in the lungs of rats; conditions: Smith 2002; cited from earlier work

Question: What does the source list for `CCCCOC(=O)CCCCCCCCCCCNC(=O)NC12CC3CC(CC(C3)C1)C2` [AUDA-nBE, 12-(3-adamantane-1-yl-ureido)-dodecanoic acid butyl ester]?
Answer: metabolism of the prodrug ([1]; subcutaneous administration): metabolized to AUDA; % Eosinophils ([2]; filtered air): 0.15 ± 0.10%; % Lymphocytes ([2]; filtered air): 0.55 ± 0.15%; % Macrophages ([2]; filtered air): 92.1 ± 1.6%; % Neutrophils ([2]; filtered air): 7.3 ± 1.8%; % Eosinophils ([2]; tobacco smoke): 0.10 ± 0.10%; % Lymphocytes ([2]; tobacco smoke): 0.25 ± 0.10 %; % Macrophages ([2]; tobacco smoke): 62.9 ± 1.8 %; % Neutrophils ([2]; tobacco smoke): 36.8 ± 1.6 %; reduction in the number of neutrophils found in the lungs ([2]; rats, animal model of COPD (tobacco smoke), FIG. 4): ~55%; total number of cells in BALF ([2]; tobacco smoke 3 days, treatment before exposure, FIG. 2): significantly decreased; number of BALF macrophages ([2]; tobacco smoke 3 days, treatment before exposure, FIG. 3): significantly decreased; also recorded: significant reductions; number of BALF neutrophils ([2]; tobacco smoke 3 days, treatment before exposure, FIG. 4): significantly decreased; also recorded: significant reductions; number of BALF lymphocytes ([2]; tobacco smoke 3 days, treatment before exposure, FIG. 5): decreased the number of BALF lymphocytes to levels not significantly different from filtered air controls; also recorded: significant reductions

Question: For `O=C(O)CCCCCCCCCCCNC(=O)NC12CC3CC(CC(C3)C1)C2` [AUDA], which half-life ([1]; blood, single subcutaneous dose of AUDA-nBE 10 mg/kg) is on record?
Answer: 22 h

Question: What does the source list for `CCCCCCCCCCCCNC(=O)NC12CC3CC(CC(C3)C1)C2` [ADU, N-Adamantyl-N′-dodecyl urea]?
Answer: metabolic stability [3]: metabolically stable; activity as an inhibitor of sEH (sEH): particularly high activity

Question: For `CCN1C=CN(CC)C1=C1C2=NC(=C(c3n(CC)cc[n+]3CC)C3=NC(=C(c4n(CC)cc[n+]4CC)c4ccc([n-]4)C(c4n(CC)cc[n+]4CC)=C4C=CC1=N4)C=C3)C=C2.[Cl-].[Cl-].[Cl-].[Cl-].[Cl-].[Mn+3]` [AEOL 10150], which “tobacco smoke-induced inflammation in the lungs” value [4] is on record?
Answer: decrease
